Each compound was assayed against Bcl-2 protein (Homo sapiens (Human), UniProt P10415) (assay: Bcl-2 binding TR-FRET (Time-Resolved Fluorescence-Resonance-Energy-Transfer) assay). Conditions: inhibition constant for binding to Bcl-2 protein.
Sequence of Bcl-2 protein (P10415 whole entry): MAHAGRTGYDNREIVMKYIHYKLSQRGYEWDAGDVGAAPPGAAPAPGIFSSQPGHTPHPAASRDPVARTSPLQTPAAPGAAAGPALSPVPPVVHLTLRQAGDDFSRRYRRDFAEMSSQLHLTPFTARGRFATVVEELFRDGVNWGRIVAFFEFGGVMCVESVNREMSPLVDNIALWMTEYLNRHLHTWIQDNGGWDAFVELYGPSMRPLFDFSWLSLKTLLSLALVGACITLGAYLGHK
Text: The smaller the Ki value, the greater is the binding affinity.
Work on `CC1(C)CCC(CN2CCN(c3ccc(C(=O)NS(=O)(=O)c4ccc(NCC5COCCN5)c([N+](=O)[O-])c4)c(Oc4cnc5[nH]ccc5c4)c3)CC2)=C(c2ccc(Cl)cc2)C1` (stereo not shown) [Compound 66, 4-(4-{[2-(4-chlorophenyl)-4,4-dimethylcyclohex-1-en-1-yl]methyl}piperazin-1-yl)-N-({4-[(morpholin-3-ylmethyl)amino]-3-nitrophenyl}sulfonyl)-2-(1H-pyrrolo[2,3-b]pyridin-5-yloxy)benzamide] yielded a Ki of under 0.01 nM. `CN1CCN(Nc2ccc(S(=O)(=O)NC(=O)c3ccc(N4CCN(CC5=C(c6ccc(Cl)cc6)CC(C)(C)OC5)CC4)cc3Oc3cnc4[nH]ccc4c3)cc2[N+](=O)[O-])CC1` [Compound 67, 4-(4-{[4-(4-chlorophenyl)-6,6-dimethyl-5,6-dihydro-2H-pyran-3-yl]methyl}piperazin-1-yl)-N-({4-[(4-methylpiperazin-1-yl)amino]-3-nitrophenyl}sulfonyl)-2-(1H-pyrrolo[2,3-b]pyridin-5-yloxy)benzamide] showed a Ki of under 0.01 nM. Compound `O=C(NS(=O)(=O)c1ccc(OCC2(F)CCOCC2)c([N+](=O)[O-])c1)c1ccc(N2CCN(CC3=C(c4ccc(Cl)cc4)CCC4(CCCC4)C3)CC2)cc1Oc1cnc2[nH]ccc2c1` [Compound 73, 4-(4-{[8-(4-chlorophenyl)spiro[4.5]dec-7-en-7-yl]methyl}piperazin-1-yl)-N-({4-[(4-fluorotetrahydro-2H-pyran-4-yl)methoxy]-3-nitrophenyl}sulfonyl)-2-(1H-pyrrolo[2,3-b]pyridin-5-yloxy)benzamide] has a Ki of under 0.01 nM. Work on `CC1(C)CCC(c2ccc(Cl)cc2)=C(CN2CCN(c3ccc(C(=O)NS(=O)(=O)c4ccc(NCC5CCOCC5)c([N+](=O)[O-])c4)c(Oc4cnc5[nH]ccc5c4)c3)CC2)C1` [Compound 75, 4-(4-{[2-(4-chlorophenyl)-5,5-dimethylcyclohex-1-en-1-yl]methyl}piperazin-1-yl)-N-({3-nitro-4-[(tetrahydro-2H-pyran-4-ylmethyl)amino]phenyl}sulfonyl)-2-(1H-pyrrolo[2,3-b]pyridin-5-yloxy)benzamide] yielded a Ki of under 0.01 nM. Work on `CC1(C)CCC(CN2CCN(c3ccc(C(=O)NS(=O)(=O)c4ccc(OCC5COCCN5)c([N+](=O)[O-])c4)c(Oc4cnc5[nH]ccc5c4)c3)CC2)=C(c2ccc(Cl)cc2)C1` (stereo not shown) [Compound 78, 4-(4-{[2-(4-chlorophenyl)-4,4-dimethylcyclohex-1-en-1-yl]methyl}piperazin-1-yl)-N-{[4-(morpholin-3-ylmethoxy)-3-nitrophenyl]sulfonyl}-2-(1H-pyrrolo[2,3-b]pyridin-5-yloxy)benzamide] yielded a Ki of under 0.01 nM. In the case of `O=C(NS(=O)(=O)c1ccc(NCC2CCOCC2)c([N+](=O)[O-])c1)c1ccc(N2CCN(CC3=C(c4ccc(Cl)cc4)CCC4(CCCC4)C3)CC2)cc1Oc1cnc2[nH]ccc2c1` [Compound 79, 4-(4-{[8-(4-chlorophenyl)spiro[4.5]dec-7-en-7-yl]methyl}piperazin-1-yl)-N-({3-nitro-4-[(tetrahydro-2H-pyran-4-ylmethyl)amino]phenyl}sulfonyl)-2-(1H-pyrrolo[2,3-b]pyridin-5-yloxy)benzamide], the Ki is reported as under 0.01 nM. For `CC1(C)CCC(CN2CCN(c3ccc(C(=O)NS(=O)(=O)c4ccc(NC5CCN(S(C)(=O)=O)CC5)c([N+](=O)[O-])c4)c(Oc4cnc5[nH]ccc5c4)c3)CC2)=C(c2ccc(Cl)cc2)C1` [Compound 80, 4-(4-{[2-(4-chlorophenyl)-4,4-dimethylcyclohex-1-en-1-yl]methyl}piperazin-1-yl)-N-[(4-{[1-(methylsulfonyl)piperidin-4-yl]amino}-3-nitrophenyl)sulfonyl]-2-(1H-pyrrolo[2,3-b]pyridin-5-yloxy)benzamide], the Ki was under 0.01 nM. `CC1(C)CCC(CN2CCN(c3ccc(C(=O)NS(=O)(=O)c4ccc(NC5CCS(=O)(=O)CC5)c([N+](=O)[O-])c4)c(Oc4cnc5[nH]ccc5c4)c3)CC2)=C(c2ccc(Cl)cc2)C1` [Compound 81, 4-(4-{[2-(4-chlorophenyl)-4,4-dimethylcyclohex-1-en-1-yl]methyl}piperazin-1-yl)-N-({4-[(1,1-dioxidotetrahydro-2H-thiopyran-4-yl)amino]-3-nitrophenyl}sulfonyl)-2-(1H-pyrrolo[2,3-b]pyridin-5-yloxy)benzamide] was tested, and the Ki was under 0.01 nM. `CC1(C)CCC(CN2CCN(c3ccc(C(=O)NS(=O)(=O)c4ccc(NC5CCN(C6CC6)CC5)c([N+](=O)[O-])c4)c(Oc4cnc5[nH]ccc5c4)c3)CC2)=C(c2ccc(Cl)cc2)C1` [Compound 98, 4-(4-{[2-(4-chlorophenyl)-4,4-dimethylcyclohex-1-en-1-yl]methyl}piperazin-1-yl)-N-({4-[(1-cyclopropylpiperidin-4-yl)amino]-3-nitrophenyl}sulfonyl)-2-(1H-pyrrolo[2,3-b]pyridin-5-yloxy)benzamide] was tested, and the Ki was under 0.01 nM. In the case of `CCN1CCOCC1COc1ccc(S(=O)(=O)NC(=O)c2ccc(N3CCN(CC4=C(c5ccc(Cl)cc5)CC(C)(C)CC4)CC3)cc2Oc2cnc3[nH]ccc3c2)cc1[N+](=O)[O-]` (stereo not shown) [Compound 103, 4-(4-{[2-(4-chlorophenyl)-4,4-dimethylcyclohex-1-en-1-yl]methyl}piperazin-1-yl)-N-({4-[(4-ethylmorpholin-3-yl)methoxy]-3-nitrophenyl}sulfonyl)-2-(1H-pyrrolo[2,3-b]pyridin-5-yloxy)benzamide], the Ki is reported as under 0.01 nM. `CC1(C)CCC(CN2CCN(c3ccc(C(=O)NS(=O)(=O)c4ccc(N[C@H]5CCCN(C6CCOCC6)C5)c([N+](=O)[O-])c4)c(Oc4cnc5[nH]ccc5c4)c3)CC2)=C(c2ccc(Cl)cc2)C1` [Compound 105, 4-(4-{[2-(4-chlorophenyl)-4,4-dimethylcyclohex-1-en-1-yl]methyl}piperazin-1-yl)-N-[(3-nitro-4-{[(3S)-1-tetrahydro-2H-pyran-4-ylpiperidin-3-yl]amino}phenyl)sulfonyl]-2-(1H-pyrrolo[2,3-b]pyridin-5-yloxy)benzamide] gave a Ki of under 0.01 nM. With `CC1(C)CCC(CN2CCN(c3ccc(C(=O)NS(=O)(=O)c4ccc(NN5CCS(=O)(=O)CC5)c([N+](=O)[O-])c4)c(Oc4cnc5[nH]ccc5c4)c3)CC2)=C(c2ccc(Cl)cc2)C1` [Compound 107, trans-4-(4-{[2-(4-chlorophenyl)-4,4-dimethylcyclohex-1-en-1-yl]methyl}piperazin-1-yl)-N-({4-[(1,1-dioxidothiomorpholin-4-yl)amino]-3-nitrophenyl}sulfonyl)-2-(1H-pyrrolo[2,3-b]pyridin-5-yloxy)benzamide] the Ki was 0.035 nM. In the case of `CC1(C)CCC(CN2CCN(c3ccc(C(=O)NS(=O)(=O)c4ccc(NCC5(N)CCOCC5)c([N+](=O)[O-])c4)c(Oc4cnc5[nH]ccc5c4)c3)CC2)=C(c2ccc(Cl)cc2)C1` [Compound 108, N-[(4-{[(4-aminotetrahydro-2H-pyran-4-yl)methyl]amino}-3-nitrophenyl)sulfonyl]-4-(4-{[2-(4-chlorophenyl)-4,4-dimethylcyclohex-1-en-1-yl]methyl}piperazin-1-yl)-2-(1H-pyrrolo[2,3-b]pyridin-5-yloxy)benzamide], the Ki is reported as under 0.01 nM. `CC1(C)CCC(CN2CCN(c3ccc(C(=O)NS(=O)(=O)c4ccc(N[C@H]5CC[C@@H](N6CCOCC6)C5)c([N+](=O)[O-])c4)c(Oc4cnc5[nH]ccc5c4)c3)CC2)=C(c2ccc(Cl)cc2)C1` [Compound 111, 4-(4-{[2-(4-chlorophenyl)-4,4-dimethylcyclohex-1-en-1-yl]methyl}piperazin-1-yl)-N-[(4-{[(1S,3R)-3-morpholin-4-ylcyclopentyl]amino}-3-nitrophenyl)sulfonyl]-2-(1H-pyrrolo[2,3-b]pyridin-5-yloxy)benzamide] was tested, and the Ki was under 0.01 nM. For `CC1(C)CCC(CN2CCN(c3ccc(C(=O)NS(=O)(=O)c4ccc(N[C@@H]5CC[C@H](N6CCOCC6)C5)c([N+](=O)[O-])c4)c(Oc4cnc5[nH]ccc5c4)c3)CC2)=C(c2ccc(Cl)cc2)C1` [Compound 112, 4-(4-{[2-(4-chlorophenyl)-4,4-dimethylcyclohex-1-en-1-yl]methyl}piperazin-1-yl)-N-[(4-{[(1R,3S)-3-morpholin-4-ylcyclopentyl]amino}-3-nitrophenyl)sulfonyl]-2-(1H-pyrrolo[2,3-b]pyridin-5-yloxy)benzamide], the Ki was under 0.01 nM. `CC1(C)CCC(CN2CCN(c3ccc(C(=O)NS(=O)(=O)c4ccc(NCC5CNCCO5)c([N+](=O)[O-])c4)c(Oc4cnc5[nH]ccc5c4)c3)CC2)=C(c2ccc(Cl)cc2)C1` (stereo not shown) [Compound 113, 4-(4-{[2-(4-chlorophenyl)-4,4-dimethylcyclohex-1-en-1-yl]methyl}piperazin-1-yl)-N-({4-[(morpholin-2-ylmethyl)amino]-3-nitrophenyl}sulfonyl)-2-(1H-pyrrolo[2,3-b]pyridin-5-yloxy)benzamide] was tested, and the Ki was under 0.01 nM. Work on `CC1(C)CCC(CN2CCN(c3ccc(C(=O)NS(=O)(=O)c4ccc(NCC5CCOC5)c([N+](=O)[O-])c4)c(Oc4cnc5[nH]ccc5c4)c3)CC2)=C(c2ccc(Cl)cc2)C1` (stereo not shown) [Compound 114, 4-(4-{[2-(4-chlorophenyl)-4,4-dimethylcyclohex-1-en-1-yl]methyl}piperazin-1-yl)-N-({3-nitro-4-[(tetrahydrofuran-3-ylmethyl)amino]phenyl}sulfonyl)-2-(1H-pyrrolo[2,3-b]pyridin-5-yloxy)benzamide] yielded a Ki of under 0.01 nM. In the case of `CC1(C)CCC(CN2CCN(c3ccc(C(=O)NS(=O)(=O)c4ccc(NC5CN(C6CCOCC6)C5)c([N+](=O)[O-])c4)c(Oc4cnc5[nH]ccc5c4)c3)CC2)=C(c2ccc(Cl)cc2)C1` [Compound 116, 4-(4-{[2-(4-chlorophenyl)-4,4-dimethylcyclohex-1-en-1-yl]methyl}piperazin-1-yl)-N-({3-nitro-4-[(1-tetrahydro-2H-pyran-4-ylazetidin-3-yl)amino]phenyl}sulfonyl)-2-(1H-pyrrolo[2,3-b]pyridin-5-yloxy)benzamide], the Ki is reported as under 0.01 nM. `CC1(C)CCC(CN2CCN(c3ccc(C(=O)NS(=O)(=O)c4ccc(NC5CN(C6CCOC6)C5)c([N+](=O)[O-])c4)c(Oc4cnc5[nH]ccc5c4)c3)CC2)=C(c2ccc(Cl)cc2)C1` (stereo not shown) [Compound 117, 4-(4-{[2-(4-chlorophenyl)-4,4-dimethylcyclohex-1-en-1-yl]methyl}piperazin-1-yl)-N-({3-nitro-4-[(1-tetrahydrofuran-3-ylazetidin-3-yl)amino]phenyl}sulfonyl)-2-(1H-pyrrolo[2,3-b]pyridin-5-yloxy)benzamide] was tested, and the Ki was under 0.01 nM.
